Read-outs that look alike come from different tables or passages of the source.
Experiments:
[1] = 10 MHz, 37° C
Protocol: The relations of protons present in water and plasma exposed to the chelate product of Example 7 was tested by NMR for relaxities, in msec, at 10 MHz, 37° C.

selected body organs = conditions: 30 min
Protocol: Each of four rabbits was injected intravenously with one of the following amounts of the solution obtained in Example 7: 0.01 mmoles/kg, 0.05 mmoles/kg, 0.10 mmoles/kg and 0.20 mmoles/kg. The rabbits were sacrificed 30 min post injection, and the proton relaxation values of selected body organs were measured with NMR, in vitro at 10 MHz.

[2] = Protocol: The compound DPDP was studied potentiometrically from pH 11.2 to 2.0. Data sets were collected on a custom-built automatic potentiometric titration apparatus composed of a METROHM 655 DOSIMAT automatic buret, a FISHER ACCUMET pH meter with a CORNING calomel combination electrode, a custom-blown water jacketed titration cell, a BRINKMAN LAUDA K-2/R constant temperature bath and a COMMODORE 64 computer. […] Data analysis was performed on an IBM-AT computer using the least squares program, BETA (Harris, W. et al, supra), and the data analysis program, HANDNBAR (Harris, W. et al, supra). The titrants were standardized by phenophthalein titration as follows: KOH was calibrated against potassium hydrogen phthalate (a primary standard), and HCl solutions were calibrated against the KOH standard. […] All solutions were made from distilled, deionized water that was further purified on a MILLI-Q cartridge system, degassed, and then kept under an atmosphere of argon which had been scrubbed for CO2 and O2. Additions of EDTA and Mn(II) solutions were performed using calibrated GILMOT pipets.
The metal complex titration was performed by adding 152.2 mg (0.2383 mmoles) to 74.6 ml of a high pH aqueous solution.

[3] = defects not observable without Mn(DPDP)

What does the source list for `Cc1ncc(COP(=O)(O)O)c(CN(CCN(CC(=O)[O-])Cc2c(COP(=O)(O)O)cnc(C)c2O)CC(=O)[O-])c1O.[Mn+2]` [Mn(DPDP), sodium-calcium salt of a manganese chelate complex of N,N,-bis-(pyridoxal-5-phosphate)ethylenediamine-N,N'-diacetic acid or N,N'-bis(3-hydroxy-2-methyl-5-phosphonomethyl-4-pyridylmethyl)ethylenediamine-N,N'-diacetic acid]?
T1 (Plasma) ([1]; 0.000039 molar): 1103 ms; T1 (Plasma) ([1]; 0.000078 molar): 995 ms; T1 (Plasma) ([1]; 0.000156 molar): 856 ms; T1 (Water) ([1]; 0.000156 molar): 1470 ms; T1 (Plasma) ([1]; 0.000312 molar): 624 ms; T1 (Water) ([1]; 0.000312 molar): 1083 ms; T1 (Plasma) ([1]; 0.000625 molar): 398 ms; T1 (Water) ([1]; 0.000625 molar): 639 ms; T1 (Plasma) ([1]; 0.00125 molar): 240 ms; T1 (Water) ([1]; 0.00125 molar): 332 ms; T1 (Plasma) ([1]; 0.0025 molar): 139 ms; T1 (Water) ([1]; 0.0025 molar): 175 ms; T2 (Plasma) ([1]; 0.0025 molar): 124 ms; T1 (Plasma) ([1]; 0.005 molar): 74 ms; T1 (Water) ([1]; 0.005 molar): 100 ms; T2 (Plasma) ([1]; 0.005 molar): 68 ms; T2 (Water) ([1]; 0.005 molar): 86 ms; T1 (Plasma) ([1]; 0.010 molar): 40 ms; T1 (Water) ([1]; 0.010 molar): 43 ms; T2 (Plasma) ([1]; 0.010 molar): 34 ms; T2 (Water) ([1]; 0.010 molar): 41 ms; uptake by the heart through the dose range studied (selected body organs; 0.05-0.20 mmol/kg, i.v.): continues to uptake; T1 (selected body organs; Blood, 0.01 mmol/kg i.v.): 844 ms; T1 (selected body organs; Blood, 0.05 mmol/kg i.v.): 613 ms; T1 (selected body organs; Blood, 0.10 mmol/kg i.v.): 506 ms; T1 (selected body organs; Blood, 0.20 mmol/kg i.v.): 411 ms; T1 (selected body organs; Brain, 0.01 mmol/kg i.v.): 554 ms; T2 (selected body organs; Brain, 0.01 mmol/kg i.v.): 76 ms; T1 (selected body organs; Brain, 0.05 mmol/kg i.v.): 496 ms; T2 (selected body organs; Brain, 0.05 mmol/kg i.v.): 82 ms; T1 (selected body organs; Brain, 0.10 mmol/kg i.v.): 590 ms; T2 (selected body organs; Brain, 0.10 mmol/kg i.v.): 90 ms; T1 (selected body organs; Brain, 0.20 mmol/kg i.v.): 352 ms; T2 (selected body organs; Brain, 0.20 mmol/kg i.v.): 66 ms; T1 (selected body organs; Fat, 0.05 mmol/kg i.v.): 200 ms; T2 (selected body organs; Fat, 0.05 mmol/kg i.v.): 139 ms; T1 (selected body organs; Fat, 0.10 mmol/kg i.v.): 183 ms; T2 (selected body organs; Fat, 0.10 mmol/kg i.v.): 115 ms; T1 (selected body organs; Fat, 0.20 mmol/kg i.v.): 192 ms; T1 (selected body organs; Heart, 0.05 mmol/kg i.v.): 353 ms; T2 (selected body organs; Heart, 0.05 mmol/kg i.v.): 54 ms; T1 (selected body organs; Heart, 0.10 mmol/kg i.v.): 300 ms; T2 (selected body organs; Heart, 0.10 mmol/kg i.v.): 51 ms; T1 (selected body organs; Heart, 0.20 mmol/kg i.v.): 205 ms; T2 (selected body organs; Heart, 0.20 mmol/kg i.v.): 47 ms; T1 (selected body organs; Large Int., 0.01 mmol/kg i.v.): 283 ms; T2 (selected body organs; Large Int., 0.01 mmol/kg i.v.): 64 ms; T1 (selected body organs; Large Int., 0.05 mmol/kg i.v.): 365 ms; T2 (selected body organs; Large Int., 0.05 mmol/kg i.v.): 83 ms; T1 (selected body organs; Large Int., 0.10 mmol/kg i.v.): 290 ms; T2 (selected body organs; Large Int., 0.10 mmol/kg i.v.): 57 ms; T1 (selected body organs; Large Int., 0.20 mmol/kg i.v.): 256 ms; T2 (selected body organs; Large Int., 0.20 mmol/kg i.v.): 74 ms; T1 (selected body organs; Liver, 0.01 mmol/kg i.v.): 176 ms; T2 (selected body organs; Liver, 0.01 mmol/kg i.v.): 39 ms; T1 (selected body organs; Liver, 0.05 mmol/kg i.v.): 76 ms; T2 (selected body organs; Liver, 0.05 mmol/kg i.v.): 31 ms; T1 (selected body organs; Liver, 0.10 mmol/kg i.v.): 65 ms; T2 (selected body organs; Liver, 0.10 mmol/kg i.v.): 23 ms; T1 (selected body organs; Liver, 0.20 mmol/kg i.v.): 68 ms; T2 (selected body organs; Liver, 0.20 mmol/kg i.v.): 25 ms; T1 (selected body organs; Lung, 0.05 mmol/kg i.v.): 575 ms; T2 (selected body organs; Lung, 0.05 mmol/kg i.v.): 113 ms; T1 (selected body organs; Lung, 0.10 mmol/kg i.v.): 435 ms; T2 (selected body organs; Lung, 0.10 mmol/kg i.v.): 61 ms; T1 (selected body organs; Lung, 0.20 mmol/kg i.v.): 376 ms; T2 (selected body organs; Lung, 0.20 mmol/kg i.v.): 63 ms; T1 (selected body organs; Renal Cort., 0.01 mmol/kg i.v.): 298 ms; T2 (selected body organs; Renal Cort., 0.01 mmol/kg i.v.): 65 ms; T1 (selected body organs; Renal Cort., 0.05 mmol/kg i.v.): 210 ms; T2 (selected body organs; Renal Cort., 0.05 mmol/kg i.v.): 57 ms; T1 (selected body organs; Renal Cort., 0.10 mmol/kg i.v.): 188 ms; T2 (selected body organs; Renal Cort., 0.10 mmol/kg i.v.): 55 ms; T1 (selected body organs; Renal Cort., 0.20 mmol/kg i.v.): 143 ms; T2 (selected body organs; Renal Cort., 0.20 mmol/kg i.v.): 53 ms; T1 (selected body organs; Renal Med., 0.01 mmol/kg i.v.): 502 ms; T2 (selected body organs; Renal Med., 0.01 mmol/kg i.v.): 99 ms; T1 (selected body organs; Renal Med., 0.05 mmol/kg i.v.): 223 ms; T2 (selected body organs; Renal Med., 0.05 mmol/kg i.v.): 57 ms; T1 (selected body organs; Renal Med., 0.10 mmol/kg i.v.): 209 ms; T2 (selected body organs; Renal Med., 0.10 mmol/kg i.v.): 48 ms; T1 (selected body organs; Renal Med., 0.20 mmol/kg i.v.): 127 ms; T2 (selected body organs; Renal Med., 0.20 mmol/kg i.v.): 60 ms; T1 (selected body organs; Skel. Musc., 0.05 mmol/kg i.v.): 494 ms; T2 (selected body organs; Skel. Musc., 0.05 mmol/kg i.v.): 47 ms; T1 (selected body organs; Skel. Musc., 0.10 mmol/kg i.v.): 425 ms; T2 (selected body organs; Skel. Musc., 0.10 mmol/kg i.v.): 31 ms; T1 (selected body organs; Skel. Musc., 0.20 mmol/kg i.v.): 232 ms; T2 (selected body organs; Skel. Musc., 0.20 mmol/kg i.v.): 31 ms; T1 (selected body organs; Small Int., 0.01 mmol/kg i.v.): 324 ms; T2 (selected body organs; Small Int., 0.01 mmol/kg i.v.): 72 ms; T1 (selected body organs; Small Int., 0.05 mmol/kg i.v.): 237 ms; T2 (selected body organs; Small Int., 0.05 mmol/kg i.v.): 52 ms; T1 (selected body organs; Small Int., 0.10 mmol/kg i.v.): 218 ms; T2 (selected body organs; Small Int., 0.10 mmol/kg i.v.): 46 ms; T1 (selected body organs; Small Int., 0.20 mmol/kg i.v.): 131 ms; T2 (selected body organs; Small Int., 0.20 mmol/kg i.v.): 46 ms; T1 (selected body organs; Stom., 0.05 mmol/kg i.v.): 245 ms; T2 (selected body organs; Stom., 0.05 mmol/kg i.v.): 41 ms; T1 (selected body organs; Stom., 0.10 mmol/kg i.v.): 242 ms; T2 (selected body organs; Stom., 0.10 mmol/kg i.v.): 52 ms; T1 (selected body organs; Stom., 0.20 mmol/kg i.v.): 271 ms; T2 (selected body organs; Stom., 0.20 mmol/kg i.v.): 53 ms; T1 (selected body organs; Urine, 0.01 mmol/kg i.v.): 821 ms; T1 (selected body organs; Urine, 0.05 mmol/kg i.v.): 150 ms; T2 (selected body organs; Urine, 0.05 mmol/kg i.v.): 136 ms; T1 (selected body organs; Urine, 0.10 mmol/kg i.v.): 90 ms; T2 (selected body organs; Urine, 0.10 mmol/kg i.v.): 75 ms; dose saturating the liver and kidneys (selected body organs; rabbit, i.v.): 0.10 mmol/kg; uptake by the brain (selected body organs; rabbit, i.v.): observed at higher doses; uptake in the heart, liver and kidneys (selected body organs; rabbit, i.v.): rapid uptake; log Kf (formation constant) ([2]; Mn(II) chelate, potentiometric, pH 11.1 to 2.0): 14.8; binding of Mn(II) ion to the chelating agent at physiological pH ([2]; physiological pH, Mn stabilized at the +2 valence): quantitatively bound; pH below which the complex begins to demetallate ([2]; titration data): below 4.5; detection of blood-brain barrier defects by NMRI tomography [3]: defects were observed by NMRI tomography

Reference: patent US4933456A, “Dipyridoxyl phosphate NMRI contrast agents” (Salutar, Inc., priority 1987, dated 1990)
